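Assay format: 96-well plates, 48-hour exposure. The concentration for full growth arrest is given as TGI.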
Assays:
Test in all cases: NCI-60 cell line screen, 48 h
IGROV1 ovarian = tested on: IGROV1 ovarian
SNB-75 CNS = tested on: SNB-75 CNS
MDA-MB-435 = tested on: MDA-MB-435
M14 melanoma = tested on: M14 melanoma
COLO 205 colon = tested on: COLO 205 colon
A549 NSCLC = tested on: A549 NSCLC
HCC-2998 colon = tested on: HCC-2998 colon
SF-268 CNS = tested on: SF-268 CNS
SR leukemia = tested on: SR leukemia
786-0 renal = tested on: 786-0 renal

Row | Compound | TGI (IGROV1 ovarian) [µM] | TGI (SNB-75 CNS) [µM] | TGI (MDA-MB-435) [µM] | TGI (M14 melanoma) [µM] | TGI (COLO 205 colon) [µM] | TGI (A549 NSCLC) [µM] | TGI (HCC-2998 colon) [µM] | TGI (SF-268 CNS) [µM] | TGI (SR leukemia) [µM] | TGI (786-0 renal) [µM]
1 | CCOC(=O)C(=[N+]=[N-])C(=O)C[N+]12CCN(CC1)CC2 | > 100 | > 100 | > 100 | > 100 | > 100 | > 100 | > 100 | > 100 | > 100 | > 100
2 | O=C(Nc1ccccc1)c1cc2c(cc1Cl)Sc1nccn1S2(=O)=O | > 72.1 | 63.7 | 42.2 | > 58.2 | > 56.6 | > 100 | 37.7 | > 89.8 | > 73 | 71.4
3 | Nn1c(Cc2ccc(Cl)cc2)n[nH]c1=O | > 100 | > 100 | > 100 | > 100 | > 100 | > 100 | > 100 | > 100 | > 100 | > 100
4 | CCNC(=S)N/N=C/c1cc(OC)ccc1O | > 100 | > 100 | > 100 | > 100 | > 100 | > 100 | > 100 | > 100 | > 100 | > 100
5 | Oc1ccc2c(c1)-c1c(c3cc(O)ccc3n1CCN1CCOCC1)CC2 | > 100 | 58.5 | 48.8 | 50.1 | 32.2 | > 100 | 32.6 | > 100 | 61.8 | 53.3
6 | C[C@]12CC[C@H]3[C@@H](CCC4=CC(=O)C=C[C@@]43O)[C@@H]1CCC2=O | > 100 | > 100 | > 100 | > 100 | > 100 | > 100 | > 100 |  | > 100 | > 100
7 | CCCCC/C=C1/CC(CO)(COC(=O)CC(C(C)C)C(C)C)OC1=O (centres undefined) | 31.7 | 22.6 | 19 | 27.1 | 14.7 | 27.1 | 35.2 | 30.3 | 42.8 | 22.3
8 | CN(Cc1c2ccccc2cc2ccccc12)S(=O)(=O)c1ccc(-c2c3nc(c(-c4ccc(S(=O)(=O)N(C)Cc5c6ccccc6cc6ccccc56)cc4)c4ccc([nH]4)c(-c4ccc(S(=O)(=O)N(C)Cc5c6ccccc6cc6ccccc56)cc4)c4nc(c(-c5ccc(S(=O)(=O)N(C)Cc6c7ccccc7cc7ccccc67)cc5)c5ccc2[nH]5)C=C4)C=C3)cc1 | > 100 | 56.8 | > 100 | > 100 | > 100 | > 100 | > 100 | > 100 | > 100 | > 100

Source: PubChem BioAssay (NCI)
